Data from patent US12275731B2, “Azaindole inhibitors of wild-type and mutant forms of LRRK2” (DANA-FARBER CANCER INSTITUTE, INC., priority 2018, dated 2025).

What was measured:
Experiment in all cases: KinomeScan profiling
Format in all cases: binding
EPHA8 = target: T1, EPHA8 (Homo sapiens, UniProt P29322); settings: EPHA8, 1 μM; read-out: % control
T1 sequence (P29322 28-1005): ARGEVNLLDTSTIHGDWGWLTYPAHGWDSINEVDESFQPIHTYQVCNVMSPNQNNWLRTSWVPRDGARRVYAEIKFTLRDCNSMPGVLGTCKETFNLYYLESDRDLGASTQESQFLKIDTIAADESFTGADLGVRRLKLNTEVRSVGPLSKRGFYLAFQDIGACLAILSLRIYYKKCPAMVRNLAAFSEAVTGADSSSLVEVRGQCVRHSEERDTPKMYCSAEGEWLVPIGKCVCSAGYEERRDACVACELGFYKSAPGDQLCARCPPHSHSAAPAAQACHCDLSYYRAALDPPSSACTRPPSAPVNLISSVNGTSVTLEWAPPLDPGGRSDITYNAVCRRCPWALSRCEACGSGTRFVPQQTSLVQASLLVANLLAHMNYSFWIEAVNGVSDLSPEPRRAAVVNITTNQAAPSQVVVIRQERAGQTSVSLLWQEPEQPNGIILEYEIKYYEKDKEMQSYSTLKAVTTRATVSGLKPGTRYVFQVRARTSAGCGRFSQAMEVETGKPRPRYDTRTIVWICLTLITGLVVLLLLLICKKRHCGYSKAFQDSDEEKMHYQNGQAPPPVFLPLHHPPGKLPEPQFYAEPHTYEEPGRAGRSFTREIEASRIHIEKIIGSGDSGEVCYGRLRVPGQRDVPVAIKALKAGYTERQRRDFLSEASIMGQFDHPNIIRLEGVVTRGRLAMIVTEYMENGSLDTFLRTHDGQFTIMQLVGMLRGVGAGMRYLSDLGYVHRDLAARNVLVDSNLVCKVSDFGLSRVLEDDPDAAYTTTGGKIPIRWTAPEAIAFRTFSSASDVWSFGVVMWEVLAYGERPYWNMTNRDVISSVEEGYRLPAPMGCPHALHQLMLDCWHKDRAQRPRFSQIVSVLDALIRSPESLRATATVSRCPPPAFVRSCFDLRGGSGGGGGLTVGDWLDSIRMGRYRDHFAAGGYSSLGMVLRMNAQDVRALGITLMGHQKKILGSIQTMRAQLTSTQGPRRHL
Outline: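 Test agents were profiled at a single concentration of 1 μM (DMSO vehicle) on a near-complete set of 468 kinases. Signal is reported relative to vehicle (100%) and a fully displacing control (0%).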

INSR = target: T2, INSR (Homo sapiens, UniProt P06213); settings: read-out: % control
T2 construct: purchased KinomeScan®
T2 sequence (P06213 28-1382): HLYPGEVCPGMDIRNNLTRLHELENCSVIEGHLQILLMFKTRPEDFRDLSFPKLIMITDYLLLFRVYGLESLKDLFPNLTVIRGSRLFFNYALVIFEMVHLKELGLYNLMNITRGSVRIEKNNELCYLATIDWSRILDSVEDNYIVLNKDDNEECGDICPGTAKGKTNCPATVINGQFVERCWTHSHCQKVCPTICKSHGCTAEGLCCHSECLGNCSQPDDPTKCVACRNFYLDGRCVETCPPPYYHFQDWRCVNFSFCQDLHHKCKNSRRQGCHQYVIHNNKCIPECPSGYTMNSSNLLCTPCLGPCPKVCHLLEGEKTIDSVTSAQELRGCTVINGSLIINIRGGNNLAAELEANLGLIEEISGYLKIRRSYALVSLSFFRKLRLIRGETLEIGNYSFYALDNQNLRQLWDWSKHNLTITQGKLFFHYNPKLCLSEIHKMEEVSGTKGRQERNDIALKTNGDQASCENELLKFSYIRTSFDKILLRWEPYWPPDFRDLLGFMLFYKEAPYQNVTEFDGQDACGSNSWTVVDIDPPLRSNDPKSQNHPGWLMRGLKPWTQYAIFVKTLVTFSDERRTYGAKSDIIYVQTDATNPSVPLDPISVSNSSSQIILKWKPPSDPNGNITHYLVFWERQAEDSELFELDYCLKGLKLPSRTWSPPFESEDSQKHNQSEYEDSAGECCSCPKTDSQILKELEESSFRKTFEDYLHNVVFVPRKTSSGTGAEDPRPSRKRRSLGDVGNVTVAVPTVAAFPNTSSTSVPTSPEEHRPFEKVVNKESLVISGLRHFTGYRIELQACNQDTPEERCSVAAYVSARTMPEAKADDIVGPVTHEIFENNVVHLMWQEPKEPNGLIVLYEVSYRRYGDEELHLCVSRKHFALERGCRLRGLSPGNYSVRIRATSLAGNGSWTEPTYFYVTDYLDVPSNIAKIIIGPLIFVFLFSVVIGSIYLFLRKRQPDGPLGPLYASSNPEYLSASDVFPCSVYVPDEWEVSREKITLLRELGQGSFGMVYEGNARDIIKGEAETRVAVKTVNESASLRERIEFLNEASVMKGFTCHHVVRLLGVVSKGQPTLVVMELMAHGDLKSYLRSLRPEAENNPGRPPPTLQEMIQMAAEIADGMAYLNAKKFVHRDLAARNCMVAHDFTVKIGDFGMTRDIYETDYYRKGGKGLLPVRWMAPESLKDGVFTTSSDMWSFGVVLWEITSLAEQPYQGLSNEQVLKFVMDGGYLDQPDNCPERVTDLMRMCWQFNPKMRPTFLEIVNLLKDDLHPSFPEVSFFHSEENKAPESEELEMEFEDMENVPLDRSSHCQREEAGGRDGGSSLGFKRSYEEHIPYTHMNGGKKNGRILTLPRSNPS
Outline: (§1)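 Percent-of-control values derive from RLU, calculated as (test − positive)/(negative − positive) × 100, where DMSO defines 100% and a positive control compound defines 0%. Each compound was tested at 1 μM in the 468-kinase panel; sub-35% readings indicate activity.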

ITK = target: T3, ITK (Homo sapiens, UniProt Q08881); settings: read-out: % control
T3 construct: purchased KinomeScan®
T3 sequence (Q08881 1-620): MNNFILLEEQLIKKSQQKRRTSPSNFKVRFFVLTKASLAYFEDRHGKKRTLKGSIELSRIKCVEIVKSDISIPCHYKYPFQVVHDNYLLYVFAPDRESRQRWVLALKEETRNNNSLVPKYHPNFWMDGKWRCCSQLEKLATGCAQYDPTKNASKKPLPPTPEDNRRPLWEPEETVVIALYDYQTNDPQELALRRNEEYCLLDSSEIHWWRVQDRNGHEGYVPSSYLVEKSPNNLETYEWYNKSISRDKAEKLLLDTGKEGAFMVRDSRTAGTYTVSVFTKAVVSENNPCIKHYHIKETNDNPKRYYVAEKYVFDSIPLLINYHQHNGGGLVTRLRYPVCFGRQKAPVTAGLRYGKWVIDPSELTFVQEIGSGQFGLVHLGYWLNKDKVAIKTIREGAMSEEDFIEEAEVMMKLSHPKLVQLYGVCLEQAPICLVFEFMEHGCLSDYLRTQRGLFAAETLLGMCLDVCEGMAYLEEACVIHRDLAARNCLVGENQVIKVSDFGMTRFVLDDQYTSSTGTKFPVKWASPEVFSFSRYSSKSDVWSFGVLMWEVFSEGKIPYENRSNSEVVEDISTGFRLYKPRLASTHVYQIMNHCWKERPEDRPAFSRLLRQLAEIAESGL
Outline: as §1

S6K1 = target: T4, S6K1 (Homo sapiens, UniProt P23443); settings: S6K1, 1 μM; read-out: % control
T4 construct: purchased KinomeScan® (panel service)
T4 sequence (P23443 whole entry): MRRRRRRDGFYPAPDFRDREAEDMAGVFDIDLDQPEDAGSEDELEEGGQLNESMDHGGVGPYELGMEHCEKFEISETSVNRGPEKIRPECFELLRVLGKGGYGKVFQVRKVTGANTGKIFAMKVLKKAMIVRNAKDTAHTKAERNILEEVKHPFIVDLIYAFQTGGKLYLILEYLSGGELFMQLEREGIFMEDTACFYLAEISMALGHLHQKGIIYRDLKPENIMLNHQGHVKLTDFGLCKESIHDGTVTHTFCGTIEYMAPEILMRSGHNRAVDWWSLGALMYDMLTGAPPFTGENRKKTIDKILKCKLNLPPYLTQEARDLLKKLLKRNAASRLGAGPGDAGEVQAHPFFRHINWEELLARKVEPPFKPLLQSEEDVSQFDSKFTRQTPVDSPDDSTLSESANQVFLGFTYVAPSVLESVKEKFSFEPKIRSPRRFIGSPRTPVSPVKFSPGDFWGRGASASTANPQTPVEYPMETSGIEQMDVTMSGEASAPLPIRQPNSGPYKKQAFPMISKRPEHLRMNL
Outline: as §1

AURKC = target: T5, AURKC (Homo sapiens, UniProt Q9UQB9); settings: read-out: % control
T5 construct: purchased KinomeScan®
T5 sequence (Q9UQB9 1-309): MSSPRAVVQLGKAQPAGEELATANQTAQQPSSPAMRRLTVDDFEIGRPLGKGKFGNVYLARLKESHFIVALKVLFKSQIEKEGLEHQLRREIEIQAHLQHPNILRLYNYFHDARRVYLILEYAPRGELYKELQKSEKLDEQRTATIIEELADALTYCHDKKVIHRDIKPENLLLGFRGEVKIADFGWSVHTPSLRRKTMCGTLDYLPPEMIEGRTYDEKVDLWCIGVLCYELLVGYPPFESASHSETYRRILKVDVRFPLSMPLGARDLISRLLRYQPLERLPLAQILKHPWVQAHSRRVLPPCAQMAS
Outline: as §1

MEK5 = target: T6, MEK5 (Homo sapiens, UniProt Q13163); settings: MEK5, 1 μM; read-out: % control
T6 sequence (Q13163 1-448): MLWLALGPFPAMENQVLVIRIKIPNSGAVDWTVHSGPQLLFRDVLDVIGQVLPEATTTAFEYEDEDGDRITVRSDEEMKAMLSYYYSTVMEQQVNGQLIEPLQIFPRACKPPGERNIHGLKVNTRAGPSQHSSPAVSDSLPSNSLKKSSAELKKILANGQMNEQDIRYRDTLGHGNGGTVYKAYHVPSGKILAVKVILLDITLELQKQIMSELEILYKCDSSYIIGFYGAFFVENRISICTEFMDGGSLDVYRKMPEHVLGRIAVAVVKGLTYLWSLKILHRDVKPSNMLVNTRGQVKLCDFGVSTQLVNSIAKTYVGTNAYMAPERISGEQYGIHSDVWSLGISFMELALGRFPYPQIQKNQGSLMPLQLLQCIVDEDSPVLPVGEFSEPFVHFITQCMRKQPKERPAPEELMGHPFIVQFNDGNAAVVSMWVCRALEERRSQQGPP
Outline: as §1

ERK2 = ERK2 (Homo sapiens, UniProt P28482); settings: ERK2, 1 μM; read-out: % control
Sequence of ERK2 (P28482 whole entry): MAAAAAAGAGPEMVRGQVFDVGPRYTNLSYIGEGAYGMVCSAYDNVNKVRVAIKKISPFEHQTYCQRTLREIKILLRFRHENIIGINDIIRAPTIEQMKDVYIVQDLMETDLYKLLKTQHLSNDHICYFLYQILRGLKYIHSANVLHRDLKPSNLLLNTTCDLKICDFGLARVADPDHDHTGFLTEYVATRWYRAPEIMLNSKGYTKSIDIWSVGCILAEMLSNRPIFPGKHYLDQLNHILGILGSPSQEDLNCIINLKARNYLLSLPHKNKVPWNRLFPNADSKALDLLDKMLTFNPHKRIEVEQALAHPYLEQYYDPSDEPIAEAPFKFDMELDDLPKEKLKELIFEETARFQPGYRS
Outline: as §1

Molecule CNc1c(-c2cnn([C@H]3CCN(C(C)=O)C[C@@H]3F)c2)cnc2[nH]cc(Cl)c12 [Compound 77, 1-((3S,4S)-4-(4-(3-chloro-4-(methylamino)-1H-pyrrolo[2,3-b]pyridin-5-yl)-1H-pyrazol-1-yl)-3-fluoropiperidin-1-yl)ethan-1-one] has a remaining binding at 1 µM (EPHA8) of 94%, a remaining binding at 1 µM (INSR) of 53% and a remaining binding at 1 µM (ITK) of 71%. The remaining binding at 1 µM (S6K1) was 50%, the remaining binding at 1 µM (AURKC) was 26% and the remaining binding at 1 µM (MEK5) was 3.2%. The remaining binding at 1 µM (ERK2) was 91%.
CNc1c(-c2ccc(C(=O)N3CCC(N4CCOCC4)CC3)cc2)cnc2[nH]cc(Cl)c12 [Compound 96, (4-(3-chloro-4-(methylamino)-1H-pyrrolo[2,3-b]pyridin-5-yl)phenyl)(4-morpholinopiperidin-1-yl)methanone] gave a remaining binding at 1 µM (EPHA8) of 96%, a remaining binding at 1 µM (INSR) of 71% and a remaining binding at 1 µM (ITK) of 93%. It also gave a remaining binding at 1 µM (S6K1) of 87%, a remaining binding at 1 µM (AURKC) of 49% and a remaining binding at 1 µM (MEK5) of 7.3%. The remaining binding at 1 µM (ERK2) was 95%.
Molecule O=C(c1ccc(-c2cnc3[nH]cc(Cl)c3c2NC2CCCC2)cc1)N1CCC(N2CCOCC2)CC1 [Compound 101, (4-(3-chloro-4-(cyclopentylamino)-1H-pyrrolo[2,3-b]pyridin-5-yl)phenyl)(4-morpholinopiperidin-1-yl)methanone] has a remaining binding at 1 µM (EPHA8) of 93%, a remaining binding at 1 µM (INSR) of 68% and a remaining binding at 1 µM (ITK) of 90%. For the same molecule, the remaining binding at 1 µM (S6K1) was 100%, the remaining binding at 1 µM (AURKC) was 71% and the remaining binding at 1 µM (MEK5) was 100%. The remaining binding at 1 µM (ERK2) was 93%.
